Reference: patent US20250275924A1, “Anticholinergic Agents and Muscarinic Agonists for the Treatment of Demodex Related Conditions” (ATTILLAPS HOLDINGS INC., priority 2022, published 2025)
Read-outs that look alike come from different tables or passages of the source.

How the values were obtained:
Demodex mites = test: in vitro assay of Demodex mite paralysis and/or killing (survival time)
Description: FIG. 1A-1E is a table summary of an in vitro assay of various agents on Demodex mites survival time and paralysis.
FIG. 1A-1E is a summary of various agents tested in an in vitro assay of Demodex mite paralysis and/or killing. The efficacy of various agents are evaluated in Demodex characterization and/or survival time experiments, including in terms of LT50 (time at which 50% of Demodex mites are killed) and/or associated time (in hours: min or total minutes).

[1] = oral paroxetine, rosacea; cited from earlier work
[2] = grouping of active agents in the summary, data in FIG. 1A-1E (not reproduced)

Row | SMILES | paralyzes Demodex mites (Demodex mites; [2]) | kills Demodex mites (Demodex mites; [2]) | other results
1 | Clc1ccc2c(c1)C(N1CCNCC1)=Nc1ccccc1O2 [amoxapine] | paralyzes Demodex mites | – | –
2 | CN1[C@@H]2CC[C@H]1C[C@@H](OC(c1ccccc1)c1ccccc1)C2 [benztropine] | – | kill Demodex mites | –
3 | CC(NC(C)(C)C)C(=O)c1cccc(Cl)c1 (centres unmarked) [bupropion] | – | kill Demodex mites | –
4 | CN(C)CCC(c1ccc(Cl)cc1)c1ccccn1 (centres unmarked) [chlorpheniramine] | paralyzes Demodex mites | – | –
5 | C[N+]12CCC(CC1)C(OC(=O)C(O)(c1ccccc1)c1ccccc1)C2 (centres unmarked) [clidinium] | paralyzes Demodex mites | – | –
6 | COc1ccc2c(c1)[C@]13CCCC[C@@H]1[C@H](C2)N(C)CC3 [dextromethorphan] | – | kill Demodex mites | –
7 | CN(C)CCOC(c1ccccc1)c1ccccc1.Cn1c(=O)c2[nH]c(Cl)nc2n(C)c1=O [dimenhydrinate] | paralyzes Demodex mites | – | –
8 | CC(C)C(=O)Oc1ccc(CO)cc1[C@H](CCN(C(C)C)C(C)C)c1ccccc1 [fesoterodine] | paralyzes Demodex mites | – | –
9 | COCCCC/C(=N\OCCN)c1ccc(C(F)(F)F)cc1 [fluvoxamine] | – | kill Demodex mites | –
10 | CN(C)CCCN1c2ccccc2CCc2ccccc21 [imipramine] | – | kill Demodex mites | –
11 | CNC1(C)C2CCC(C2)C1(C)C (centres unmarked) [mecamylamine] | – | kill Demodex mites | –
12 | CNCCC=C1c2ccccc2CCc2ccccc21 [nortriptyline] | paralyzes Demodex mites | – | –
13 | Fc1ccc([C@@H]2CCNC[C@H]2COc2ccc3c(c2)OCO3)cc1 [paroxetine] | paralyzes Demodex mites | – | patients indicative of improved clinical symptoms [1]: 42.9%; tolerability [1]: well-tolerated; onset of Demodex mite paralysis (Demodex mites; 1% paroxetine): within the first hour; period of Demodex mite paralysis (Demodex mites; 1% paroxetine): at least 12 hours
14 | CC(CN1c2ccccc2Sc2ccccc21)N(C)C (centres unmarked) [promethazine] | – | kill Demodex mites | –
15 | OCCOCCN1CCN(C2=Nc3ccccc3Sc3ccccc32)CC1 [quetiapine] | – | – | paralyzes Demodex mites (Demodex mites): paralyzes Demodex mites
16 | OC(CCN1CCCCC1)(c1ccccc1)C1CCCCC1 (centres unmarked) [trihexyphenidyl] | paralyzes Demodex mites | – | –
